# Literature values as cited in US20240299410A1 (Woolsey Pharmaceuticals, Inc., priority 2022, published 2024).
# Structures can show the parent of a compound that is named as a salt. Where two headings read alike, the source gives them in different places.
# Tests used:
# [1] = oral fasudil in drinking water; cited from earlier work
# SOD mice = details: cited from earlier work; for motor function: presymptomatic SOD mice, 30 mg/kg in drinking water (Günther et al. 2014)
# [2] = humans, intravenous administration, after an hour; cited from earlier work
# human ALS patients = details: three ALS patients, 30 mg intravenously twice daily over 20 consecutive working days; cited from earlier work
# [3] = male SOD mice, both 30 mg/kg and 100 mg/kg (Takata 2013)
compound,measurement,setting,value
"O=S(=O)(c1cccc2c(O)nccc12)N1CCCNCC1 [M3, hydroxyfasudil]",M3 in male rats relative to female rats,[1],~7 fold
C[C@@H](N)[C@H]1CC[C@H](C(=O)Nc2ccncc2)CC1 [Y-27632],motor function,SOD mice; female,did not significantly improve motor function
same,motor function,SOD mice; male,improved motor function
"O=S(=O)(c1cccc2cnccc12)N1CCCNCC1 [fasudil, Hexahydro-1-(5-isoquinolinesulfonyl)-1H-1,4-diazepine monohydrochloride hemihydrate]",mixture of fasudil and M3 in CSF,[2],50/50
same,motor behavior,"SOD mice; male SOD mice, 30 mg/kg and 100 mg/kg beginning at disease onset (Günther 2017)",significantly improved motor behavior
same,survival time,SOD mice; [3],prolonged survival time
same,"symptom onset (motor performance, motor neuron loss)",SOD mice; [3],delayed symptom onset
same,"prolonging disease duration, 100 mg/kg versus 30 mg/kg","SOD mice; presymptomatic female SOD mice, oral (Tönges et al. 2013)",not as effective at prolonging disease duration as the lower dose
same,outcome of compassionate use treatment,human ALS patients,no conclusive results beyond safety
